In ChEMBL document CHEMBL1123498, “Structural studies on bioactive compounds. 4. A structure-antitumor activity study on analogues of N-methylformamide” (J Med Chem, 1986):

Columns and labels:
Mus musculus [1] = test: Antitumor activity was evaluated against the M5076 reticulum cell sarcoma in mice measured as Control tumor volume for the treated at the optimal dose 400 mg/Kg day; type: functional
Mus musculus [2] = test: Antitumor activity was evaluated against the M5076 reticulum cell sarcoma in mice at dose of 800-100 mg/kg per day; type: ADME, organism-based
Mus musculus [3] = test: Antitumor activity was evaluated against the M5076 reticulum cell sarcoma in mice measured as mean tumor volume for the treated at the optimal dose 400 mg/kg day; type: functional
Mus musculus [4] = test: Antitumor activity was evaluated against the TLX5 lymphoma measured as mean death day for the treated at a optimal dose of 100 mg/Kg/day; type: functional
Mus musculus [5] = test: Antitumor activity was evaluated against the TLX5 lymphoma in mice measured for control as death day at a optimal dose of 100 mg/Kg/day; type: functional
Mus musculus [6] = test: Antitumor activity was evaluated for the compound against the M5076 reticulum cell sarcoma in mice and the % T/C(treated/control) value was calculated at optimal dose of 50 mg/kg; type: functional
Mus musculus [7] = test: Antitumor activity was evaluated against the M5076 reticulum cell sarcoma in mice measured as mean tumor volume for the treated at the optimal dose 50 mg/Kg/day; type: functional
Mus musculus [8] = test: Antitumor activity was evaluated against the M5076 reticulum cell sarcoma in mice at dose of 200-25 mg/kg per day; type: ADME, organism-based
Mus musculus [9] = test: Antitumor activity was evaluated against the TLX5 lymphoma in mice measured as treated to control at optimal dose. 100 mg/Kg/day; type: functional
Mus musculus [10] = test: Antitumor activity was evaluated against the M5076 reticulum cell sarcoma in mice measured as Control tumor volume for the treated at the optimal dose 50 mg/Kg/day; type: functional
Mus musculus [11] = test: Antitumor activity was evaluated against the M5076 reticulum cell sarcoma in mice at dose of 150-6.25 mg/kg per day; type: ADME, organism-based
Mus musculus [12] = test: Antitumor activity was evaluated against the TLX5 lymphoma measured as mean death day for the treated at a optimal dose 800 mg/Kg/day; type: functional
Mus musculus [13] = test: Antitumor activity was evaluated against the TLX5 lymphoma in mice measured for control as death day at a optimal doses of 800 mg/Kg/day; type: functional
Mus musculus [14] = test: Antitumor activity was evaluated against the TLX5 lymphoma in mice measured as treated to control at optimal dose. 400 mg/Kg/day; type: functional
Mus musculus [15] = test: Antitumor activity was evaluated against the TLX5 lymphoma in mice measured for control as death day at a optimal dose of 800 mg/Kg/day; type: functional
Mus musculus [16] = test: Antitumor activity was evaluated against the M5076 reticulum cell sarcoma in mice measured as mean tumor volume for the treated at the optimal dose 25 mg/Kg/day; type: functional
Mus musculus [17] = test: Antitumor activity was evaluated against the TLX5 lymphoma in mice measured as treated to control at a optimal dose of 200 mg/Kg/day; type: functional
Mus musculus [18] = test: Antitumor activity was evaluated against the M5076 reticulum cell sarcoma in mice measured as Control tumor volume for the treated at the optimal dose 200 mg/Kg/day; type: functional
Mus musculus [19] = test: Antitumor activity was evaluated against the M5076 reticulum cell sarcoma in mice measured as mean tumor volume for the treated at the optimal dose 100 mg/Kg/day; type: functional
Mus musculus [20] = test: Antitumor activity was evaluated against the TLX5 lymphoma in mice measured as treated to control at a optimal dose of 100 mg/Kg/day; type: functional
Mus musculus [21] = test: Antitumor activity was evaluated against the M5076 reticulum cell sarcoma in mice measured as Control tumor volume for the treated at the optimal dose 50 mg/kg/day; type: functional
Mus musculus [22] = test: Antitumor activity was evaluated for the compound against the M5076 reticulum cell sarcoma in mice and the % T/C(treated/control) value was calculated at optimal dose of 25 mg/kg; type: functional
Mus musculus [23] = test: Antitumor activity was evaluated against the M5076 reticulum cell sarcoma in mice at dose of 400-6.25 mg/kg per day; type: ADME, organism-based
Mus musculus [24] = test: Antitumor activity was evaluated against the M5076 reticulum cell sarcoma in mice measured as Control tumor volume for the treated at the optimal dose 25 mg/Kg/day; type: functional
Mus musculus [25] = test: Antitumor activity was evaluated against the TLX5 lymphoma in mice measured as treated to control at a optimal dose of 400 mg/Kg/day; type: functional
Mus musculus [26] = test: Antitumor activity was evaluated against the M5076 reticulum cell sarcoma in mice measured as Control tumor volume for the treated at the optimal dose 100 mg/kg/day; type: functional
Mus musculus [27] = test: Antitumor activity was evaluated for the compound against the M5076 reticulum cell sarcoma in mice and the % T/C(treated/control) value was calculated at optimal dose of 200 mg/kg; type: functional
Mus musculus [28] = test: Antitumor activity was evaluated against the TLX5 lymphoma measured as mean death day for the treated at a optimal dose of 800 mg/Kg/day; type: functional
Mus musculus [29] = test: Antitumor activity was evaluated against the TLX5 lymphoma in mice measured as treated to control at a optimal dose of 800 mg/Kg/day; type: functional
Mus musculus [30] = test: Antitumor activity was evaluated for the compound against the M5076 reticulum cell sarcoma in mice and the % T/C(treated/control) value was calculated at optimal dose of 100 mg/kg; type: functional
Mus musculus [31] = test: Antitumor activity was evaluated against the TLX5 lymphoma in mice measured for control as death day at the below optimal dose 400 mg/Kg/day; type: functional
Mus musculus [32] = test: Antitumor activity was evaluated against the TLX5 lymphoma measured as mean death day for the treated at a optimal dose of 200 mg/Kg/day; type: functional
Mus musculus [33] = test: Antitumor activity was evaluated against the TLX5 lymphoma in mice measured for control as death day at a optimal dose of 200 mg/Kg/day; type: functional
Mus musculus [34] = test: Antitumor activity was evaluated against the TLX5 lymphoma measured as mean death day for the treated at a optimal dose of 400 mg/Kg/day; type: functional
Mus musculus [35] = test: Antitumor activity was evaluated against the TLX5 lymphoma in mice measured as treated to control at optimal dose. 800 mg/Kg/day; type: functional
Mus musculus [36] = test: Antitumor activity was evaluated against the M5076 reticulum cell sarcoma in mice measured as mean tumor volume for the treated at the optimal dose 200 mg/Kg/day; type: functional
Mus musculus [37] = test: Antitumor activity was evaluated against the M5076 reticulum cell sarcoma in mice at dose of 400-100 mg/kg per day; type: ADME, organism-based
Mus musculus [38] = test: Antitumor activity was evaluated for the compound against the M5076 reticulum cell sarcoma in mice and the % T/C(treated/control) value was calculated at optimal dose of 1000 mg/kg; type: functional
Mus musculus [39] = test: Antitumor activity was evaluated against the M5076 reticulum cell sarcoma in mice measured as Control tumor volume for the treated at the optimal dose 1000 mg/Kg/day; type: functional
Mus musculus [40] = test: Antitumor activity was evaluated against the M5076 reticulum cell sarcoma in mice measured as mean tumor volume for the treated at the optimal dose 1000 mg/Kg/day; type: functional
Mus musculus [41] = test: Antitumor activity was evaluated against the M5076 reticulum cell sarcoma in mice at dose of 2500-600 mg/kg per day; type: ADME, organism-based
Mus musculus [42] = test: Antitumor activity was evaluated against the M5076 reticulum cell sarcoma in mice at dose of 1500-600 mg/kg per day; type: functional
Mus musculus [43] = test: Antitumor activity was evaluated against the TLX5 lymphoma in mice measured for control as death day at a optimal dose 400 mg/Kg/day; type: functional
Mus musculus [44] = test: Antitumor activity was evaluated against the TLX5 lymphoma measured as mean death day for the treated at a optimal dose 400 mg/Kg/day; type: functional

Compound CNC(=O)c1ccccc1 has a Control tumor volume (Mus musculus [1]) of 1.9, an LD10 (Mus musculus [2]) of 450 mg/kg/day and an LD50 (Mus musculus [2]) of 650 mg/kg/day. The Mean tumor volume (Mus musculus [3]) was 0.8.
In the case of CN(C)/C=C\[N+](=O)[O-], the “Mean day of death” value (Mus musculus [4]) is reported as 15.4, the Control death day (Mus musculus [5]) is reported as 11.1 and the T/C (Mus musculus [6]) is reported as 35%. For the same compound, the Mean tumor volume (Mus musculus [7]) was 0.5, the LD10 (Mus musculus [8]) was 55 mg/kg/day and the LD50 (Mus musculus [8]) was 75 mg/kg/day. It also gave a T/C (Mus musculus [9]) of 139% and a Control tumor volume (Mus musculus [10]) of 1.5.
CNC(=O)ON(C(C)=O)C(=O)NC [CARACEMIDE] was tested, and the T/C (Mus musculus [6]) was 38%, the Mean tumor volume (Mus musculus [7]) was 0.9 and the LD10 (Mus musculus [11]) was 53 mg/kg/day. It also gave an LD50 (Mus musculus [11]) of 63 mg/kg/day and a Control tumor volume (Mus musculus [10]) of 2.4.
In the case of [2H]C([2H])([2H])NC=O, the “Mean day of death” value (Mus musculus [12]) is reported as 18.8, the Control death day (Mus musculus [13]) is reported as 13.2 and the T/C (Mus musculus [14]) is reported as 142%.
For CNC=O, the Control death day (Mus musculus [15]) was 9.2, the Mean tumor volume (Mus musculus [16]) was 2.1 and the “Mean day of death” value (Mus musculus [4]) was 11. The Control death day (Mus musculus [5]) was 9.2, the T/C (Mus musculus [6]) was 33% and the Mean tumor volume (Mus musculus [7]) was 0.9. For the same compound, the T/C (Mus musculus [17]) was 135%, the Control tumor volume (Mus musculus [18]) was 2.7 and the Mean tumor volume (Mus musculus [19]) was 0.3. It also gave a T/C (Mus musculus [20]) of 120%, a Control tumor volume (Mus musculus [21]) of 2.7 and a T/C (Mus musculus [22]) of 70%. It also gave an LD10 (Mus musculus [23]) of 220 mg/kg/day, an LD50 (Mus musculus [23]) of 300 mg/kg/day and a Control tumor volume (Mus musculus [24]) of 2.7. For the same compound, the T/C (Mus musculus [25]) was 178%, the Control tumor volume (Mus musculus [26]) was 2.7 and the T/C (Mus musculus [27]) was 0%. For the same compound, the “Mean day of death” value (Mus musculus [28]) was 17.6, the T/C (Mus musculus [29]) was 191% and the T/C (Mus musculus [30]) was 11%. For the same compound, the Control death day (Mus musculus [31]) was 9.2, the “Mean day of death” value (Mus musculus [32]) was 12.4 and the Control death day (Mus musculus [33]) was 9.2. The “Mean day of death” value (Mus musculus [34]) was 16.4.
Work on NC=O [FORMAMIDE] yielded a Control tumor volume (Mus musculus [18]) of 2.1, a T/C (Mus musculus [35]) of 123% and a Control death day (Mus musculus [13]) of 9.1. The Mean tumor volume (Mus musculus [36]) was 0.8, the T/C (Mus musculus [27]) was 38% and the “Mean day of death” value (Mus musculus [28]) was 11.2. It also gave an LD10 (Mus musculus [37]) of 200 mg/kg/day and an LD50 (Mus musculus [37]) of 270 mg/kg/day.
O=CNCO showed a T/C (Mus musculus [38]) of 38%, a Control tumor volume (Mus musculus [39]) of 2.1 and a Mean tumor volume (Mus musculus [40]) of 0.8. The LD10 (Mus musculus [41]) was 1580 mg/kg/day and the LD50 (Mus musculus [41]) was 1930 mg/kg/day.
Compound CN(C)C=O [DIMETHYLFORMAMIDE] has a T/C (Mus musculus [38]) of 40%, a Control tumor volume (Mus musculus [39]) of 2.5 and an LD10 (Mus musculus [42]) of 1130 mg/kg/day. For the same compound, the LD50 (Mus musculus [42]) was 1280 mg/kg/day and the Mean tumor volume (Mus musculus [40]) was 1.
CCNC=O was tested, and the Control death day (Mus musculus [43]) was 9.2, the “Mean day of death” value (Mus musculus [44]) was 12.6 and the T/C (Mus musculus [35]) was 137%.
